Measurements reported in patent US20160220557A1, “USE OF ACETYL-COA CARBOXYLASE INHIBITORS FOR TREATING ACNE VULGARIS” (PFIZER INC., priority 2013, published 2016).
Like-named read-outs stand apart in the source and are kept apart here.

Tests used:
[1] = molecular target: T1, recombinant human ACC2 (rhACC2) (Homo sapiens, UniProt O00763, V2141I); experiment: Transcreener ADP detection FP assay, recombinant human ACC2 inhibition; type: biochemical; conditions: recombinant human ACC2, 50 μM ATP; read-out: Transcreener Assay hACC2 IC50
T1 construct: made in house; host or cells: CHO cells, tetracycline-induced (pcDNA5 FRT TO-TOPO)
T1 sequence (O00763 whole entry V2141I): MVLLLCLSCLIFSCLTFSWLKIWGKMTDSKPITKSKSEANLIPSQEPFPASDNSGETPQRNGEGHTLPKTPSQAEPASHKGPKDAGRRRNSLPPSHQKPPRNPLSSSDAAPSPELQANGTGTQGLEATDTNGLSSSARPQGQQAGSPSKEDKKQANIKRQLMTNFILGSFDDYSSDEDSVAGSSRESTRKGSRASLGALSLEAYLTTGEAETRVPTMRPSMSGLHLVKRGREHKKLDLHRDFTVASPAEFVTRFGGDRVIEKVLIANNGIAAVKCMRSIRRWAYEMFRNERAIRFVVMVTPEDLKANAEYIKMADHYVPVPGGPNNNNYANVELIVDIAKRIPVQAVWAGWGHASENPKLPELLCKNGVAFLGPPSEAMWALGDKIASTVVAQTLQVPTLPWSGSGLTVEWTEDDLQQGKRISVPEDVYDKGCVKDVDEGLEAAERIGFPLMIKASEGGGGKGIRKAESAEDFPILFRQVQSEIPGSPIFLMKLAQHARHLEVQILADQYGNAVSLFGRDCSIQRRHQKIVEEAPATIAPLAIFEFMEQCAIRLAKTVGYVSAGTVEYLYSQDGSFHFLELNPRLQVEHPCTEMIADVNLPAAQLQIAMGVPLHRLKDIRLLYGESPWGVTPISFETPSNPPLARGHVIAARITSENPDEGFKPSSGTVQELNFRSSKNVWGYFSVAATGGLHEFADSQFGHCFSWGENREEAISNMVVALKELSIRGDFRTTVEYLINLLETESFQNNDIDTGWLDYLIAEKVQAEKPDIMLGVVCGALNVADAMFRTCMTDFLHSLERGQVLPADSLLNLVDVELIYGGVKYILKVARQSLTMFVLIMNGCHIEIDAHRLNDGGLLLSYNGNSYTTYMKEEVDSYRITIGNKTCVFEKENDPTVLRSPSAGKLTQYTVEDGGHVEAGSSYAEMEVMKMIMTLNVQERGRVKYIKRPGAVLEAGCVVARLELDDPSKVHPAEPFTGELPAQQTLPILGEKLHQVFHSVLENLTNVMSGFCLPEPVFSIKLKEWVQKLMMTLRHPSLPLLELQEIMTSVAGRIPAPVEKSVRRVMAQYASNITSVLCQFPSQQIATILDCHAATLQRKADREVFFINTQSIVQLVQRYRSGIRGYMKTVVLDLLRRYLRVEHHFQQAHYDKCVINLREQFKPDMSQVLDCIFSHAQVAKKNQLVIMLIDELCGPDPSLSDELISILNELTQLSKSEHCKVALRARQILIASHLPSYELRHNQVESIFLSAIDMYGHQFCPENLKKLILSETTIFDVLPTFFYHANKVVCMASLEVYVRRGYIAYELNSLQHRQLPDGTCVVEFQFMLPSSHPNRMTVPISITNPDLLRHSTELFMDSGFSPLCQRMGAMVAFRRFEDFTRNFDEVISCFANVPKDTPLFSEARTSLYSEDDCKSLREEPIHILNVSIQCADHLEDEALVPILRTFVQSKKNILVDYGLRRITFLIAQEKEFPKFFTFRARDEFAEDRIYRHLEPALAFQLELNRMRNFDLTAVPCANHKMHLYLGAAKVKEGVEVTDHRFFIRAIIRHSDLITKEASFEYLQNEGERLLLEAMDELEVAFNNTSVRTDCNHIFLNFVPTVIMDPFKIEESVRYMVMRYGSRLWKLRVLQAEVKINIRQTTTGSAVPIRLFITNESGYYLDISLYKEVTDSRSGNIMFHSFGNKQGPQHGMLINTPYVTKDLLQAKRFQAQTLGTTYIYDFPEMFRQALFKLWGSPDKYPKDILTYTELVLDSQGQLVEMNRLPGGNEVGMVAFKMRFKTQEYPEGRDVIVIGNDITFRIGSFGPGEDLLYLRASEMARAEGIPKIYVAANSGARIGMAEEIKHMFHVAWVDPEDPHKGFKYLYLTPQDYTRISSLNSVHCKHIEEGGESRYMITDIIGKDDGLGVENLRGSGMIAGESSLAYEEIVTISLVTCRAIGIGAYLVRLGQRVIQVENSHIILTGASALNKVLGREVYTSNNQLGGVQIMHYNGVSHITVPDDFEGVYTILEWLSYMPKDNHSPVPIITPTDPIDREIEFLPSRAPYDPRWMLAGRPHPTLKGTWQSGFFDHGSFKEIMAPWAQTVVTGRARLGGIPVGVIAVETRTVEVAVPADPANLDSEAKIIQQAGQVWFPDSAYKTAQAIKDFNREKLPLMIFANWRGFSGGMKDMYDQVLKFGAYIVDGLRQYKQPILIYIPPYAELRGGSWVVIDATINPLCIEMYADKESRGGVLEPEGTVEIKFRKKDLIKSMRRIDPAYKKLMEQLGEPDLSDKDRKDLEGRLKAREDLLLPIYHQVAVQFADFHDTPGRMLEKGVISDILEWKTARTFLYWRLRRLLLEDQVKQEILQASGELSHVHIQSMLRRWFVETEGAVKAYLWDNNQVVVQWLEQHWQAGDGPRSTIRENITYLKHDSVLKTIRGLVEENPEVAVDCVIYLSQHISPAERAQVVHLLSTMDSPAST

[2] = system: SZ95 human sebocyte cells; experiment: Inhibition of de novo lipogenesis (14C-acetate incorporation) in cultured human sebocytes; type: cell-based; conditions: SZ95 sebocytes, 14C-acetate incorporation into lipids relative to vehicle, read-out: C9302E Sebocyte IC50
Experimental: SZ95 sebocytes were grown in Human Sebocyte Growth Medium (HSGM) (Sebomed® medium (Biochrom: F8205) supplemented with 10% heat-inactivated fetal bovine serum, 1% penicillin/streptomycin, 1 mM calcium chloride and 5 ng/mL recombinant human epidermal growth factor (Life Tech: PHG0311)). At 90% confluence, cells were washed three times with PBS and then detached with 0.05% Trypsin-EDTA. Cells were centrifuged and resuspended in HSGM containing 10% charcoal-stripped serum (Life Tech: 12676-029). Cells were then plated in 24-well plates at a density of 0.25×10^6 cells/well and were incubated overnight to enable cell adherence to the culture plate.
Cells were treated with a dose response of compound, and each dose was assayed in triplicate. Briefly, compounds were dissolved in DMSO stocks and diluted 1:1000 into charcoal-stripped media. 0.1% DMSO without compound was used as the vehicle control. After a 1 hour preincubation with compound or vehicle, 0.25 μCi ^14C-acetic acid (American Radiolabeled Chemicals: ARC0158B) was added to each well. Plates were then incubated for an additional two hours. At the end of the incubation period, cells were removed from incubator, placed on ice, and then washed twice with ice-cold PBS to remove free ^14C-acetic acid. Plates were sealed and stored at −20° C. until analysis.
Plates were shaken for 1 hour at room temperature to induce lysis. Lysates were transferred to individual 1.5 mL polypropylene tubes, and wells were washed with 175 μl of PBS, which was added to lysates. 450 μl of a 1:1 (v/v) chloroform:methanol solution was then added to each tube, and then all tubes were vortexed for 10 seconds and centrifuged at 20,000×g for 5 minutes at room temperature to separate aqueous from organic phase. A 25 μl aliquot was removed from the bottom organic layer of each sample and added to 6 mL OptiPhase supermix (PerkinElmer: 1200-439) scintillation fluid. Counts of ^14C incorporated into lipids were assessed by scintillation counting. DNL (counts of ^14C incorporated into lipids) was expressed for compound treated cells relative to DNL in the vehicle control treated cells for determination of EC50 values. For a subset of the compounds tested, a second aliquot (3×35 μl) of the organic layer of each sample was removed and applied to a TLC lane (Analtech Silica Gel G Plates). Radiolabeled lipids were resolved using a 2-solvent system. Solvent 1 contained a 100:100:100:40:36 mixture of ethyl acetate:isopropyl alcohol:CHCl3:MeOH:0.25% KCl and solvent 2 a 70:27:3 hexane:diethyl ether:acetic acid mix. The TLC plate was dried under nitrogen for 30 minutes and [^14C]-calibrators added to a vacant lane. Bands were visualized and quantitated using a Molecular Dynamics' Storm 860 Phosphorimager system following 18-36 hours exposure to a Phosphorimager screen.

[3] = molecular target: T2, recombinant human ACC1 (rhACC1) (Homo sapiens, UniProt Q13085, DEL44-44); experiment: Transcreener ADP detection FP assay, recombinant human ACC1 inhibition; type: biochemical; conditions: recombinant human ACC1, 50 μM ATP; read-out: Transcreener Assay hACC1 IC50
T2 construct: His6 (N); made in house; host or cells: SF9 insect cells (baculovirus)

hACC1 = hACC1 (Homo sapiens, UniProt Q13085); experiment: Radiometric ACC1 inhibition assay; type: biochemical
hACC2 = hACC2 (Homo sapiens, UniProt O00763); experiment: Radiometric ACC2 inhibition assay; type: biochemical
Sequence of hACC2 (O00763 whole entry): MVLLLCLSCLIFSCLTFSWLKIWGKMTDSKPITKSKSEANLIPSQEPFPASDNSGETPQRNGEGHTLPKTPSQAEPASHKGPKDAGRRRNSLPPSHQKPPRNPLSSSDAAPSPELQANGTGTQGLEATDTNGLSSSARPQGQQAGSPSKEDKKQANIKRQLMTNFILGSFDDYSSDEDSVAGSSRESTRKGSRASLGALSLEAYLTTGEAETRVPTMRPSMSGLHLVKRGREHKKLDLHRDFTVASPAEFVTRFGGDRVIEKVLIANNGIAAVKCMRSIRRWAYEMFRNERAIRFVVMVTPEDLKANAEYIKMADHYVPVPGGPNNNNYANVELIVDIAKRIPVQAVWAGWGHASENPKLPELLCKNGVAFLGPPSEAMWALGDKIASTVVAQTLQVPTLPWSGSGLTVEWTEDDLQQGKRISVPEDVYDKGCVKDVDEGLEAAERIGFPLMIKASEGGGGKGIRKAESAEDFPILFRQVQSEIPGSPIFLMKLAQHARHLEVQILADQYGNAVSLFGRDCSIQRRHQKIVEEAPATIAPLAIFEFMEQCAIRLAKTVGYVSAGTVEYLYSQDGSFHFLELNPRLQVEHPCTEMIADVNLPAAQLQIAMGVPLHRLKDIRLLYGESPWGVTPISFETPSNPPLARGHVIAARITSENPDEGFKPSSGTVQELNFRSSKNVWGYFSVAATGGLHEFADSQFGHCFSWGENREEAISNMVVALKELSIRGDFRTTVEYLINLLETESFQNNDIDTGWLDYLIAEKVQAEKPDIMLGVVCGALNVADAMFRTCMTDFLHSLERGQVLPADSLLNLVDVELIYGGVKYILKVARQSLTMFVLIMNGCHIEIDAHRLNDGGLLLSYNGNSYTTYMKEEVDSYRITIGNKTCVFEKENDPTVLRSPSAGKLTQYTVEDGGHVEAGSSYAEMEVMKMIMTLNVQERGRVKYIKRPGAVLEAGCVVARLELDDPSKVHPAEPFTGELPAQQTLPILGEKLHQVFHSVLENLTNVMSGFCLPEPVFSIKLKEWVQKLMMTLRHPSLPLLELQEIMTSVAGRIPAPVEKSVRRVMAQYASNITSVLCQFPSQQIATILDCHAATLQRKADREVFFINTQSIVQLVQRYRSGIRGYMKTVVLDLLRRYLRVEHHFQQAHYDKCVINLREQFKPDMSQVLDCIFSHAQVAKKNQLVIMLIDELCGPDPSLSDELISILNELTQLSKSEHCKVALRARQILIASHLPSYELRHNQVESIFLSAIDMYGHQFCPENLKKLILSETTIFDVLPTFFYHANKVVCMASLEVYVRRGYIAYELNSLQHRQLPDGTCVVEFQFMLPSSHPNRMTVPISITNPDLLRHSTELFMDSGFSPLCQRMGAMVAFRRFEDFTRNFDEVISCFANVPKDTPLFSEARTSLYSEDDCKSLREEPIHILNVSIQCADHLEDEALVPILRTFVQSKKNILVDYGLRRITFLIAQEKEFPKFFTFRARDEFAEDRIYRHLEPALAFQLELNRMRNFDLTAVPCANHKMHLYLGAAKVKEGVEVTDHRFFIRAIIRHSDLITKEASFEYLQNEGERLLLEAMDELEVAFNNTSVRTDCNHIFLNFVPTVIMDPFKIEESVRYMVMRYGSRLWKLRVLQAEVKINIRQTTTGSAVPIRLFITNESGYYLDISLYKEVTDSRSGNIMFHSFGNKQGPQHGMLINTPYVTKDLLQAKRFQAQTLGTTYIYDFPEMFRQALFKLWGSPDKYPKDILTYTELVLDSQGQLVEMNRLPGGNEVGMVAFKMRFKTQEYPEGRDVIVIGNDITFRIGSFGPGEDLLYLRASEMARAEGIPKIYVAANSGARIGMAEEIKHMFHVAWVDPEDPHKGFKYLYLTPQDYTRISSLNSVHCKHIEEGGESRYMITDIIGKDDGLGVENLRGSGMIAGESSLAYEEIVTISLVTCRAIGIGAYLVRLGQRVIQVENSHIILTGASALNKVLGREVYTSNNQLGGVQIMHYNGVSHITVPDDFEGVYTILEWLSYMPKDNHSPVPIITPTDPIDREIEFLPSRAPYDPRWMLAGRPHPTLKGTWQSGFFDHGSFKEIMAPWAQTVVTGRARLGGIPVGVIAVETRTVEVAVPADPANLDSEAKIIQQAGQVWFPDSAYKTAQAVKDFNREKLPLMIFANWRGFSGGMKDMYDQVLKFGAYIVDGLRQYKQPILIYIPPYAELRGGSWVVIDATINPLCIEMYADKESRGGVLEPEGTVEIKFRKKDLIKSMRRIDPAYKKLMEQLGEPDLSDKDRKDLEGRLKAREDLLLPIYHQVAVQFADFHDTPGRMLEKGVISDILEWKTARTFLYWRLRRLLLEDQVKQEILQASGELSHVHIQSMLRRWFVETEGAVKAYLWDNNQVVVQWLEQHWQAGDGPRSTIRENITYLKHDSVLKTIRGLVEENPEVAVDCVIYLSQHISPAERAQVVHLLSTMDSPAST

Row | IC50 [1] | IC50 ([2]; Homo sapiens) | IC50 [3] | IC50 (hACC1) | IC50 [2] | IC50 (hACC2) | SMILES
1 | 1100 nM | 4310 nM | 2200 nM |  |  |  | CC(=O)NCC(C)c1ccc2nc(Oc3ccc(OCC4CC4)nc3)sc2c1 (stereo not shown) [Example 15, N-(2-(2-((6-(cyclopropylmethoxy)pyridin-3-yl)oxy)benzo[d]thiazol-6-yl)propyl)acetamide]
2 |  |  |  | 4 nM | 217 nM | 7 nM | CC(C)n1ncc2c1C(=O)CC1(CCN(C(=O)c3ccc4[nH]nc(C#N)c4c3)CC1)C2 [Example 11, 5-(1-isopropyl-7-oxo-1,4,6,7-tetrahydrospiro[indazole-5,4′-piperidine]-1′-carbonyl)-1H-indazole-3-carbonitrile]
3 | 180 nM | 3280 nM | > 2980 nM |  |  |  | CCCOc1ccc(Oc2ccc(-c3ccc(C(C)NC(C)=O)cc3)cn2)cc1 (stereo not shown) [Example 13, N-(1-(4-(6-(4-propoxyphenoxy)pyridin-3-yl)phenyl)ethyl)acetamide, reference compound]
4 |  | 94 nM |  |  |  |  | COc1nccc2ccc(C(=O)N3CCC4(CC3)Cc3cn(C(C)(C)C)nc3C(=O)N4)cc12 [Example 7, 2′-(tert-butyl)-1-(1-methoxyisoquinoline-7-carbonyl)-4′,6′-dihydrospiro[piperidine-4,5′-pyrazolo[3,4-c]pyridin]-7′(2′H)-one]
5 |  |  |  | > 10000 nM |  |  | CCCCCCCCCCCCCCOc1ccc(C(=O)OCC(F)(F)F)o1 [Example 17, 2,2,2-trifluoroethyl 5-(tetradecyloxy)furan-2-carboxylate]
6 | 4 nM | 1690 nM | 16 nM |  |  |  | COc1cc(C(=O)N2CCC3(CC2)CC(=O)c2cc(-c4nnn[nH]4)ccc2O3)cc2c1ccn2C1CC1 [Example 10, 1′-(1-cyclopropyl-4-methoxy-1H-indole-6-carbonyl)-6-(1H-tetrazol-5-yl)spiro[chromane-2,4′-piperidin]-4-one]
7 | 28 nM |  | 41 nM |  |  |  | O=C(O)CCc1ccc(-c2ccc(S(=O)(=O)N[C@H]3CC[C@H](C(=O)N4CCOC[C@@H]4c4ccccc4)CC3)cc2)cc1 [Example 24, 3-(4′-(N-((1S,4r)-4-((S)-3-phenylmorpholine-4-carbonyl)cyclohexyl)sulfamoyl)-[1,1′-biphenyl]-4-yl)propanoic acid]
8 |  |  |  | > 10000 nM |  |  | CCCCCCCCCCCCCCOc1ccc(C(=O)OCc2oc(=O)oc2C)o1 [Example 19, (5-methyl-2-oxo-1,3-dioxol-4-yl)methyl 5-(tetradecyloxy)furan-2-carboxylate]
9 |  |  |  | 5 nM | 103 nM | 4 nM | CC(C)n1ncc2c1C(=O)CC1(CCN(C(=O)c3ccc4[nH]nc(C#N)c4c3)CC1)C2 [Example 6, 5-(1-isopropyl-7-oxo-1,4,6,7-tetrahydrospiro[indazole-5,4′-piperidin]-1′-ylcarbonyl)-1H-indazole-3-carbonitrile]
10 | 2200 nM |  | 11000 nM |  |  |  | CCCCC1=NC2(CCN(C(=O)c3c(NC(=O)NCC)sc4ccccc34)CC2)C(=O)N1 [Example 20, 1-(3-(2-butyl-4-oxo-1,3,8-triazaspiro[4.5]dec-1-ene-8-carbonyl)benzo[b]thiophen-2-yl)-3-ethyl urea]
11 | 957 nM |  | 4050 nM |  |  |  | CC(=O)NC(C)c1ccc(-c2cnc(Oc3ccc(OCC4CC4)cc3)s2)cc1 (stereo not shown) [Example 22, N-(1-(4-(2-(4-(cyclopropylmethoxy)phenoxy)thiazol-5-yl)phenyl)ethyl)acetamide]
12 | 69 nM | 2770 nM | 74 nM |  |  |  | CC(C)(O)[C@@H](NC(=O)[C@H]1CC[C@H](NS(=O)(=O)c2ccc(C(F)(F)F)cc2)CC1)c1ccccc1 [Example 16, (1R,4S)—N—((S)-2-hydroxy-2-methyl-1-phenylpropyl)-4-((4-(trifluoromethyl)phenyl)sulfonamido)cyclohexane-1-carboxamide]
13 |  |  |  | > 10000 nM |  |  | CCCCCCCCCCCCCCOc1ccc(C(=O)OC(C)C)o1 [Example 18, isopropyl 5-(tetradecyloxy)furan-2-carboxylate]
